{"source": "patent US10626077B2", "about": "“Salvianolic acid compound T, preparation method therefor, and use thereof” (TASLY PHARMACEUTICAL GROUP CO., LTD., priority 2013, dated 2020)", "key": {"[1]": {"system": "L929 cells induced by TGF-β1", "assay": "Inhibition of L929 cell proliferation induced by TGF-β1 (MTT)", "format": "cell-based", "details": "2 μg/L TGF-β1, 72 h, MTT method", "experimental": "L929 cells with a cell population of 5×10^7/L adjusted by DMEM culture solution containing 10% fetal bovine serum were seeded into 96 well plate, cultured for 24 h. Supplementing the same culture medium containing 2 μg/L TGF-β1 and (S)/(R)-salvianolic acid T of different concentrations. There were 6 multiple pores in each group, final concentration of (S)/(R)-salvianolic acid T was set as 0, 1, 3, 10, 20, 40, 80, 150 μmol/L. Removing medium after being cultured for 72 h, assaying the cell activity by MTT method."}, "[2]": {"assay": "DPPH free-radical scavenging reaction", "experimental": "Absorbance of the reaction solution was measured at 517 nm. In this study, vitamin C was regarded as a positive control. Free-radical scavenging rate was calculated in accordance with the following equation: Free-radical scavenging rate (%)=[1−Asample/Acontrol)/Acontrol]×100% Wherein, the Asample means the absorbance of the tested samples, and Acontrol means the absorbance of blank control."}, "[3]": {"system": "pituitrin-caused acute myocardial ischemia in rats", "assay": "Pituitrin-caused experimental acute myocardial ischemia in rats (ECG J point and T wave)", "format": "in vivo, SD rats", "design": "J point / T wave: unit not given here", "experimental": "Administration dose of the (R)-salvianolic acid T lyophilized powder was 10 mg/kg body-weight in high-dose group; 5.0 mg/kg body-weight in low-dose group.\n2.1 Screening of Animals: Before formal experiment, rats were injected via vena caudalis with pituitrin (Pit) (1 U/kg). Normal ECG and the ECG of 5 min after injection were recorded to observe J point elevation and T wave abnormality. Animals who had abnormal ECG before injection or who were insensitive to Pit were rejected.\n2.2 Grouping of Animals: The desirable rats were divided into 3 groups randomly, respectively named […]Model control group, □(R)-salvianolic acid T lyophilized powder low-dose group; □(R)-salvianolic acid T lyophilized powder high-dose group.\n3. Experimental Methods: SD rats, in body-weight of 220-250 g, half male and half female, were randomly divided into groups, 10 animals in each group. The rats in the treatment groups were drenched with aqueous suspensions of different samples each day, while the rats in the model control group were drenched with equal volume of normal saline. All animals were consecutively administered for 7 days. 40 min after final administration, the rats were anesthetized and connected with devices to record lead II normal ECG. The pituitrin (Pit) was injected at a constant speed in the dosage of 1 U/kg body-weight via vena caudalis within about 10 s. ECG changes were recorded at 0 s, 5 s, 10 s, 15 s, 30 s, 45 s, 1 min, 2 min, 3 min, 4 min, 5 min, 10 min and 15 min after administration. Differences between pre injection and post injection of Pit of each group as well as between the treatment group and the model control group were compared to analyze changes of J point and T wave, and the data were analyzed by t-test."}, "[4]": {"system": "rats with myocardial infarction induced by coronary artery ligation", "assay": "Myocardial infarction rate (TTC staining) after coronary artery ligation", "format": "in vivo, SD rats", "details": "high-dose group compared with aspirin group; FIG. 11 heart biopsy", "experimental": "Clean male SD rats were taken and placed in groups randomly according to the body-weight, including pseudo operation group (distilled water), model group (distilled water), aspirin group, (S)-salvianolic acid T low-dose group, (S)-salvianolic acid T high-dose group, and there were 10 rats in each group. Each group of rats were administrated by gastric administration once a day, continuously for 10 days. […] Recording standard II lead ECG at 5 minutes before surgery, 0 s, 1 min, 5 min, 15 min, 1 h, 4 h after the ligation, to investigate the changes of J point of ECG. Taking out the heart immediately after the end of the experiment, washing away the blood with normal saline, cutting off the atrium and the bottom of the blood vessels, weighing the mass of the ventricle, cutting the ventricle into 5 pieces on average along the atrioventricular groove and putting them into 1% (w/v) TTC solution, dyeing in the water bath at a constant temperature of 37 °C for 5 min, taking digital photos firstly after taking them out, then separating the unstained parts (that is, the infarct parts) and weighing to calculate the percentage of them in the mass of total ventricular (myocardial infarction percentage), and performing t test with ischemia model group. The formula for calculating the infarct percentage is as follows: Infarct percentage (%)=(the mass of pale areas/the mass of the ventricle)×100%"}, "[5]": {"assay": "Determination of reducing capacity (potassium ferricyanide / ferric chloride, absorbance at 700 nm)", "experimental": "0.5 ml of 200 mM phosphate buffer (pH6.8) containing different concentrations of the (S)/(R)-salvianolic acid T and 0.5 ml of 1.0% (w/v) potassium ferricyanide solution were sucked respectively and cooled on an ice bath after being heated on a water bath (50[…]) for 20 min. 0.5 ml of 10% trichloroacetic acid solution was added and centrifuged at […] for 10 min. 1.0 ml of the resulting supernatant was taken, into which 1.0 ml of distilled water and 0.2 ml of 0.1% (w/v) ferric chloride solution were added, stood still for 10 min and the absorbance was measured at 700 nm. Meanwhile, the blank experiment was carried out. Vitamin C is a strongly reducing substance, acting as positive control in this study. Reducing capacity of the sample is represented by subtracting the absorbance of the blank control from the absorbance of the tested sample. Thus, it means the higher absorbance, the stronger reducing capacity."}, "[6]": {"details": "compared with positive control vitamin C"}, "[7]": {"details": "high-dose group (10 mg/kg), 0 s after pituitrin"}, "[8]": {"details": "high-dose group (10 mg/kg), 15 s after pituitrin"}, "[9]": {"details": "high-dose group (10 mg/kg), 30 s after pituitrin"}, "[10]": {"details": "high-dose group (10 mg/kg), 45 s after pituitrin"}, "[11]": {"details": "high-dose group (10 mg/kg), 1 min after pituitrin"}, "[12]": {"details": "high-dose group (10 mg/kg), 5 min after pituitrin"}, "[13]": {"details": "high-dose group (10 mg/kg), 10 min after pituitrin"}, "[14]": {"details": "high-dose group (10 mg/kg, drenched 7 days), normal ECG before pituitrin"}, "[15]": {"details": "low-dose group (5.0 mg/kg), 0 s after pituitrin"}, "[16]": {"details": "low-dose group (5.0 mg/kg), 15 s after pituitrin"}, "[17]": {"details": "low-dose group (5.0 mg/kg), 30 s after pituitrin"}, "[18]": {"details": "low-dose group (5.0 mg/kg), 45 s after pituitrin"}, "[19]": {"details": "low-dose group (5.0 mg/kg), 1 min after pituitrin"}, "[20]": {"details": "low-dose group (5.0 mg/kg), 5 min after pituitrin"}, "[21]": {"details": "low-dose group (5.0 mg/kg), 10 min after pituitrin"}, "[22]": {"details": "low-dose group (5.0 mg/kg, drenched 7 days), normal ECG before pituitrin"}}, "data": [{"smiles": "O=C(/C=C/c1ccc(O)c(O)c1/C(=C\\c1ccc(O)c(O)c1)C(=O)O)O[C@H](Cc1ccc(O)c(O)c1)C(=O)O", "note": "[(R)-salvianolic acid T]", "values": [{"measurement": "IC50", "setting": "[1]", "value": 26.9, "unit": "µM"}, {"measurement": "free-radical scavenging compared with vitamin C", "setting": "[2]; [6]", "value": "much higher free-radical scavenging than that of the vitamin C"}, {"measurement": "Free-radical scavenging rate", "setting": "[2]; sample 0.625 μg/ml, 100 μM DPPH, 20 min, 25° C.", "value": "10.51 ± 0.73", "unit": "%"}, {"measurement": "Free-radical scavenging rate", "setting": "[2]; sample 1.25 μg/ml", "value": "28.15 ± 2.47", "unit": "%"}, {"measurement": "Free-radical scavenging rate", "setting": "[2]; sample 2.5 μg/ml", "value": "43.41 ± 1.85", "unit": "%"}, {"measurement": "Free-radical scavenging rate", "setting": "[2]; sample 5 μg/ml", "value": "85.59 ± 8.75", "unit": "%"}, {"measurement": "Free-radical scavenging rate", "setting": "[2]; sample 10 μg/ml", "value": "99.47 ± 5.14", "unit": "%"}, {"measurement": "effect of anti-acute myocardiac ischemia", "setting": "[3]; 10.0 mg/kg", "value": "had effect of anti-acute myocardiac ischemia"}, {"measurement": "J point", "setting": "[3]; [7]", "value": "−0.040 ± 0.039"}, {"measurement": "T wave", "setting": "[3]; [7]", "value": "0.128 ± 0.106"}, {"measurement": "J point", "setting": "[3]; [8]", "value": "−0.069 ± 0.035"}, {"measurement": "T wave", "setting": "[3]; [8]", "value": "0.150 ± 0.101"}, {"measurement": "J point", "setting": "[3]; [9]", "value": "−0.058 ± 0.035"}, {"measurement": "T wave", "setting": "[3]; [9]", "value": "0.100 ± 0.095"}, {"measurement": "J point", "setting": "[3]; [10]", "value": "−0.052 ± 0.031"}, {"measurement": "T wave", "setting": "[3]; [10]", "value": "0.134 ± 0.105"}, {"measurement": "J point", "setting": "[3]; [11]", "value": "−0.016 ± 0.037"}, {"measurement": "T wave", "setting": "[3]; [11]", "value": "0.145 ± 0.099"}, {"measurement": "J point", "setting": "[3]; [12]", "value": "−0.058 ± 0.049"}, {"measurement": "T wave", "setting": "[3]; [12]", "value": "0.127 ± 0.104"}, {"measurement": "J point", "setting": "[3]; [13]", "value": "-0.061 ± 0.049"}, {"measurement": "T wave", "setting": "[3]; [13]", "value": "0.150 ± 0.102"}, {"measurement": "J point", "setting": "[3]; [14]", "value": "−0.049 ± 0.037"}, {"measurement": "T wave", "setting": "[3]; [14]", "value": "0.099 ± 0.073"}, {"measurement": "J point", "setting": "[3]; [15]", "value": "−0.040 ± 0.027"}, {"measurement": "T wave", "setting": "[3]; [15]", "value": "0.134 ± 0.104"}, {"measurement": "J point", "setting": "[3]; [16]", "value": "0.023 ± 0.039"}, {"measurement": "T wave", "setting": "[3]; [16]", "value": "0.211 ± 0.109"}, {"measurement": "J point", "setting": "[3]; [17]", "value": "−0.052 ± 0.022"}, {"measurement": "T wave", "setting": "[3]; [17]", "value": "0.189 ± 0.120"}, {"measurement": "J point", "setting": "[3]; [18]", "value": "−0.030 ± 0.041"}, {"measurement": "T wave", "setting": "[3]; [18]", "value": "0.176 ± 0.137"}, {"measurement": "J point", "setting": "[3]; [19]", "value": "−0.016 ± 0.032"}, {"measurement": "T wave", "setting": "[3]; [19]", "value": "0.151 ± 0.097"}, {"measurement": "J point", "setting": "[3]; [20]", "value": "−0.034 ± 0.052"}, {"measurement": "T wave", "setting": "[3]; [20]", "value": "0.121 ± 0.101"}, {"measurement": "J point", "setting": "[3]; [21]", "value": "−0.025 ± 0.051"}, {"measurement": "T wave", "setting": "[3]; [21]", "value": "0.142 ± 0.099"}, {"measurement": "J point", "setting": "[3]; [22]", "value": "−0.054 ± 0.046"}, {"measurement": "T wave", "setting": "[3]; [22]", "value": "0.101 ± 0.069"}, {"measurement": "effect on preventing acute myocardial infarction induced by coronary artery ligation", "setting": "[4]", "value": "equal effect"}, {"measurement": "reducing capacity compared with vitamin C", "setting": "[5]; [6]", "value": "much stronger than that of vitamin C"}, {"measurement": "reducing capacity (absorbance at 700 nm minus blank control)", "setting": "[5]; sample 3.125 μg/ml", "value": "0.152 ± 0.034"}, {"measurement": "reducing capacity (absorbance at 700 nm minus blank control)", "setting": "[5]; sample 6.25 μg/ml", "value": "0.212 ± 0.009"}, {"measurement": "reducing capacity (absorbance at 700 nm minus blank control)", "setting": "[5]; sample 12.5 μg/ml", "value": "0.042 ± 0.011"}, {"measurement": "reducing capacity (absorbance at 700 nm minus blank control)", "setting": "[5]; sample 25 μg/ml", "value": "0.761 ± 0.018"}, {"measurement": "reducing capacity (absorbance at 700 nm minus blank control)", "setting": "[5]; sample 50 μg/ml", "value": "1.561 ± 0.026"}]}]}
